Reference: US11752084B2, “Methods for fat reduction or elimination of lipid droplets” (Alastin Skincare, Inc., priority 2017, dated 2023)

Legend:
[1] = test system: hyaluronic acid; details: ex vivo human skin model; cited from earlier work
[2] = test system: 3T3-L1 adipocytes and J774 macrophages; experiment: Macrophage clustering on adipocytes; assay type: cell-based; details: for number of macrophages associated with adipocytes: FIG. 5A, ~100 adipocytes/condition
Experimental: 3T3-L1 adipocytes were untreated or treated with TNF-alpha (˜25 nM) for 24 hours. One set of TNF-alpha treated adipocytes was also treated with hexapeptide-11 (0.1 mg/mL). One set of J774 macrophages was treated with hexapeptide-11 (0.1 mg/mL) for 24 hours. The macrophages were added to the adipocytes. After an 1 hour incubation, the cells were placed on ice and incubated with a fluorescently labeled Cholera toxin B subunit to label the cell surface of macrophages a fluorescent green. The cells were then fixed with 4% formaldehyde for 15 minutes and then incubated with LipidTox to label the lipid droplets within the adipocytes a fluorescent red color. Four conditions were performed: (1) J774 macrophages with untreated adipocytes; (2) J774 macrophages with TNF-alpha treated adipocytes; (3) J774 macrophages with TNF alpha treated adipocytes plus hexapeptide-11 in the 1 hour incubation of both cell types; and (4) peptide pretreated J774 macrophages with hexapeptide-11 pretreated TNF-alpha treated adipocytes incubated together in the presence of hexapeptide-11. Images taken with a 60× objective were analyzed by counting the number of macrophages associated with ˜100 adipocytes for each condition.

[3] = test system: Dermal Fibroblasts; experiment: Gene expression in fibroblasts by quantitative-PCR; assay type: cell-based; details: 72 hours exposure, vs untreated control
Experimental: Gene expression in fibroblasts were measured following 72 hours of exposure to hexapeptide-11.
Dermal Fibroblasts were plated in cell culture media and allowed to grow to approximately 85-90% confluency following manufacturer's guidelines. Cells were harvested and plated at 10,000 cells per cm^2 in 6-well dishes cultured for 3 days. On the third day, confluency was estimated by microscopy and the cell culture media was replaced. The cells were treated with hexpapeptide-11 at a 100× concentration or control buffer without peptide. The time at initial exposure to the peptide is considered time, t=0. Treated and untreated control cells were harvested, counted and extracted for RNA at 24 hours, 48 hours, and 72 hours following t=0. Cell pellets and isolated RNA were stored at −80° C. until analysis by quantitative-PCR.
The 72-hour time point RNA samples (treated and untreated) were used for gene expression analysis. RNA was converted to first strand cDNA and analyzed by quantitative-PCR.

| Compound | stimulation of dermal hyaluronic acid level versus placebo [1] | stimulation of epidermal hyaluronic acid level versus placebo [1] | macrophage clustering ([2]; 0.1 mg/mL, TNF-alpha treated adipocytes) | number of macrophages associated with adipocytes [2] | adipocyte droplet breakdown ([2]; TNF-alpha and peptide treatments, FIG. 4 right panel) | Fold Change AMBRA1 [3] | Fold Change ATG4A [3] | Fold Change ATG5 [3] | Fold Change CASP3 [3] | Fold Change COL5A2 [3] | Fold Change IGF1 [3] | Fold Change MAPK14 [3] | Fold Change PDGFRA [3] | Fold Change PSMB5 [3] | Fold Change SOD3 [3] | Fold Change TNF [3] |
| --- | --- | --- | --- | --- | --- | --- | --- | --- | --- | --- | --- | --- | --- | --- | --- | --- |
| CCCCCCCC(=O)CCc1ccc(O)c(OC)c1 [hydroxymethoxyphenyl decanone] | 259% | 198% | – | – | – | – | – | – | – | – | – | – | – | – | – | – |
| Phe-Val-Ala-Pro-Phe-Pro (FVAPFP) [hexapeptide-11] | – | – | increase macrophage clustering | increased | further adipocyte droplet breakdown | 3.59 fold | 3.29 fold | 2.00 fold | 2.24 fold | −65.65 fold | −901.80 fold | −83.67 fold | −369.65 fold | 2.56 fold | −101.59 fold | −92.41 fold |
| TNF-alpha [reference compound] | – | – | – | greatly increased | – | – | – | – | – | – | – | – | – | – | – | – |
